Assay results published in patent publication US20210324359A1, “USE OF GRAM-NEGATIVE LYSIN-ANTIMICROBIAL PEPTIDE (AMP) POLYPEPTIDE CONSTRUCTS IN TREATING ENDOCARDITIS” (priority 2020, published 2021).

How the values were obtained:
Format in all cases: cell-based, Pseudomonas aeruginosa
[1] = system: carbapenem-resistant P. aeruginosa strains; experiment: Resensitization of carbapenem-resistant strains, combinations with imipenem or meropenem (Tables 18-22)
Experimental: Such resensitization may be determined by combining the present lysins or lysin-AMP polypeptide constructs with an antibiotic in a checkerboard assay as described herein. Antibiotic-resistant bacteria, such as carbapenem-resistant P. aeruginosa, are added to the lysin or lysin-AMP polypeptide construct combination. […] See Clinical and Laboratory Standards Institute (CLSI), CLSI. […] M100 Performance Standards for Antimicrobial Susceptibility Testing; 29th Edition. Clinical and Laboratory Standards Institute, Wayne, Pa., which is herein incorporated by reference in its entirety.
Up to seven carbapenem-resistant isolates were assessed. […] See Clinical and Laboratory Standards Institute (CLSI), CLSI. […] M100 Performance Standards for Antimicrobial Susceptibility Testing; 29th Edition. Clinical and Laboratory Standards Institute, Wayne, Pa.

[2] = system: carbepenam-resistant clinical isolate WC-453; experiment: MIC in CAA without or with 25% human serum (Table 5); parameters: CAA MIC: unit not given here; settings: for CAA/HuS MIC: CAA supplemented with 25% human serum
Experimental: MIC values were determined using a modification of the standard broth microdilution reference method defined by the Clinical and Laboratory Standards Institute (CLSI), CLSI. […] Methods for Dilution Antimicrobial Susceptibility Tests for Bacteria That Grow Aerobically; Approved Standard-10th Edition. Clinical and Laboratory Standards Institute, Wayne, Pa.

[3] = system: P. aeruginosa strain WC-453; experiment: Time-kill assay in HEPES or CAA with 25% human serum (Tables 7, 8); settings: for HEPES (Log10 CFU/mL), 1 hr / HEPES (Log10 CFU/mL), 3 hr: 25 mM HEPES pH 7.4; for HEPES (Log10 CFU/mL), 1 hr / HEPES (Log10 CFU/mL), 3 hr / CAA/HuS (Log10 CFU/mL), 1 hr / CAA/HuS (Log10 CFU/mL), 3 hr: lysin 10 μg/ml, WC-453; for CAA/HuS (Log10 CFU/mL), 1 hr / CAA/HuS (Log10 CFU/mL), 3 hr: CAA + 25% human serum
Experimental: Exponential phase bacteria were then pelleted and resuspended in 1/5 culture volume of 25 mM HEPES, pH 7.4 before a final adjustment to an optical density corresponding to a McFarland value of 0.5. […] All treatments were incubated at 37° C. with aeration. At time points before the addition of lysin (or buffer control) and at 1 hour and 3 hours intervals thereafter, culture samples were removed for quantitative plating on CAA agar plates.

P. aeruginosa = experiment: MIC, modified CLSI broth microdilution in CAA medium without or with […] human serum (Table 4); settings: for CAA MIC: CAA medium, no human serum; for CAA/HuS MIC: CAA supplemented with […] human serum; for effect of the structural modification on activity (as assessed by MIC) versus the parent lysin: CAA with and without human serum, parent GN316 or GN37; on CAA/HuS MIC: CAA supplemented with 2.5% human serum
Text: 2015. […] Clinical and Laboratory Standards Institute, Wayne, Pa.

[4] = in combination with GN121, isolate PA19
[5] = in combination with GN121, isolate PA20
[6] = in combination with GN121, isolate PA21
[7] = in combination with GN121, isolate PA22
[8] = in combination with GN121, isolate PA23
[9] = in combination with GN121, isolate PA24
[10] = in combination with GN123, isolate PA19
[11] = in combination with GN123, isolate PA20
[12] = in combination with GN123, isolate PA21
[13] = in combination with GN123, isolate PA22
[14] = in combination with GN123, isolate PA23
[15] = in combination with GN123, isolate PA24
[16] = in combination with GN123, isolate WC-452

Molecule: C[C@@H](O)[C@H]1C(=O)N2C(C(=O)O)=C(SCCN=CN)C[C@H]12 [Imipenem, imipenem, reference compound]
- antibiotic MIC, Combination [1, 4]: 1 µg/mL
- carbapenem susceptibility class, Combination [1, 4]: (S) ((S) = sensitive)
- antibiotic MIC, Combination [1, 5]: 0.5 µg/mL
- carbapenem susceptibility class, Combination [1, 5]: (S) ((S) = sensitive)
- antibiotic MIC, Combination [1, 6]: 1 µg/mL
- carbapenem susceptibility class, Combination [1, 6]: (S) ((S) = sensitive)
- antibiotic MIC, Combination [1, 7]: 2 µg/mL
- carbapenem susceptibility class, Combination [1, 7]: (S) ((S) = sensitive)
- antibiotic MIC, Combination [1, 8]: 0.125 µg/mL
- carbapenem susceptibility class, Combination [1, 8]: (S) ((S) = sensitive)
- antibiotic MIC, Combination [1, 9]: 1 µg/mL
- carbapenem susceptibility class, Combination [1, 9]: (S) ((S) = sensitive)
- antibiotic MIC, Combination [1, 10]: 0.5 µg/mL
- carbapenem susceptibility class, Combination [1, 10]: (S) ((S) = sensitive)
- antibiotic MIC, Combination [1, 11]: 1 µg/mL
- carbapenem susceptibility class, Combination [1, 11]: (S) ((S) = sensitive)
- antibiotic MIC, Combination [1, 12]: 0.5 µg/mL
- carbapenem susceptibility class, Combination [1, 12]: (S) ((S) = sensitive)
- antibiotic MIC, Combination [1, 13]: 2 µg/mL
- carbapenem susceptibility class, Combination [1, 13]: (S) ((S) = sensitive)
- antibiotic MIC, Combination [1, 14]: 0.25 µg/mL
- carbapenem susceptibility class, Combination [1, 14]: (S) ((S) = sensitive)
- antibiotic MIC, Combination [1, 15]: 2 µg/mL
- carbapenem susceptibility class, Combination [1, 15]: (S) ((S) = sensitive)
- antibiotic MIC, Combination [1, 16]: 1 µg/mL
- carbapenem susceptibility class, Combination [1, 16]: (S) ((S) = sensitive)
- carbapenem susceptibility class, Combination ([1]; in combination with GN351, vs. WC-452): (S) ((S) = sensitive)
- carbapenem susceptibility class, Combination ([1]; in combination with GN370, vs. WC-452): (S) ((S) = sensitive)
- carbapenem susceptibility class, Combination ([1]; in combination with GN428, vs. WC-452): (S) ((S) = sensitive)
- carbapenem susceptibility class, antibiotic Alone ([1]; isolate PA19): R ((R) = resistant)
- carbapenem susceptibility class, antibiotic Alone ([1]; isolate PA20): R ((R) = resistant)
- carbapenem susceptibility class, antibiotic Alone ([1]; isolate PA21): R ((R) = resistant)
- carbapenem susceptibility class, antibiotic Alone ([1]; isolate PA22): R ((R) = resistant)
- carbapenem susceptibility class, antibiotic Alone ([1]; isolate PA23): R ((R) = resistant)
- carbapenem susceptibility class, antibiotic Alone ([1]; isolate PA24): R ((R) = resistant)
- carbapenem susceptibility class, antibiotic Alone ([1]; isolate WC-452): R ((R) = resistant)

B1: GN328: lysin obtained from Pseudomonas protegens (SEQ ID NO: 220) (protein, listed as Pseudomonas protegens)
chain: MNTLRHGDRSQAVRSLQKNLNSHGAILVVDGDYGDATEAAVRAYQLKAGLVVDGIAGEKTQTSLVGGDCALLLKNADLVSAAQRLDLPLASVYAVNEVESNGKGFFANGKPAILFERHIMYRQLKTPRYPGDDPAELKRHADELAAQYPAIINPNPGGYAGGPAEHQRLATARLIDDTAALESASWGAFQIMGFHWKRLGYASVQDFVTAMSASEPRQFEAFVRFIETDPALHKALKARKWSDFARQYNGPNYQRNLYDTKLQRAYERHSACSCGQEVPA
- activity in CAA supplemented with human serum (25%) [2]: active
- CAA MIC [2]: 8
- CAA/HuS MIC [2]: 2

B2: GN65: Lysin GN65, used as control (protein)
chain: MAILKIGSKGLEVKNLQTSLNKIGFNLVADGIFGKATDNAVRAVQAGAGLVVDGIAGPKTMYAIRNAGESHQDHLTEADLIDAARELSVDLASIKAVNQVESRGTGFTKSGKIKTLFERHIMYKKLNAKFGQAKANALAQLYPTLVNAKAGGYTGGDAELERLHGAIAIDKDCAYESASYGLFQIMGFNCVICGYDNAEEMFNDFLTGERAQLMAFVKFIKADANLWKALKDKNWAEFARRYNGPAYAQNQYDTKLAAAYKSFS
modifications: (1)..(264) GN316 lysin
- HEPES (Log10 CFU/mL), 1 hr [3]: 5.7 Log10 CFU/mL
- HEPES (Log10 CFU/mL), 3 hr [3]: <3.7 Log10 CFU/mL
- CAA/HuS (Log10 CFU/mL), 1 hr [3]: 6.0 Log10 CFU/mL
- CAA/HuS (Log10 CFU/mL), 3 hr [3]: <3.7 Log10 CFU/mL

B3: GN81: dispersin B, an enzyme that degrades biofilm (SEQ ID NO: 226); control (protein, listed as Actinobacillus pleuropneumoniae)
chain: MDLPKKESGLTLDIARRFYTVDTIKQFIDTIHQAGGTFLHLHFSDHENYALESSYLEQREENATEKNGTYFNPKTNKPFLTYKQLNEIIYYAKERNIEIVPEVDSPNHMTAIFDLLTLKHGKEYVKGLKSPYIAEEIDINNPEAVEVIKTLIGEVIYIFGHSSRHFHIGGDEFSYAVENNHEFIRYVNTLNDFINSKGLITRVWNDGLIKNNLSELNKNIEITYWSYDGDAQAKEDIQYRREIRADLPELLANGFKVLNYNSYYLYFVPKSGSNIHNDGKYAAEDVLNNWTLGKWDGKNSSNHVQNTQNIIGSSLSIWGERSSALNEQTIQQASKNLLKAVIQKTNDPKSH
- HEPES (Log10 CFU/mL), 1 hr [3]: 7.4 Log10 CFU/mL
- HEPES (Log10 CFU/mL), 3 hr [3]: 6.5 Log10 CFU/mL
- CAA/HuS (Log10 CFU/mL), 1 hr [3]: 6.7 Log10 CFU/mL
- CAA/HuS (Log10 CFU/mL), 3 hr [3]: 7.0 Log10 CFU/mL

B4: GN40: lysin obtained from Pseudomonas putida strain PA14H7 (SEQ ID NO: 210) (protein, listed as Micavibrio aeruginosavorus)
chain: MFRPSYILPGVAAVMLLASTAAHAAGYEWKRVDYQYLQSVSEKERGMLRIYKDYEEREPCQNYRELPPEVKYVDCKLYHRVAIPDPPPPPAPPPAPEPPKVVSSYEIFFPLDSTALDLQANAMVDKAAADIALYQPSTVIVAGYTDTSGAADYNDQLSANRAMAVSAALSQRGIPNTAMDLEAHGQNDLKVPTADDVHEPQNRRTVIHFMK
- HEPES (Log10 CFU/mL), 1 hr [3]: 7.0 Log10 CFU/mL
- HEPES (Log10 CFU/mL), 3 hr [3]: 5.7 Log10 CFU/mL
- CAA/HuS (Log10 CFU/mL), 1 hr [3]: 6.6 Log10 CFU/mL
- CAA/HuS (Log10 CFU/mL), 3 hr [3]: 6.7 Log10 CFU/mL

B5: GN243: lysin-AMP construct: PP moiety, IGEM linker and TI15 peptide C-terminal to GN37 lysin (SEQ ID NO: 16) (protein)
chain: MTYTLSKRSLDNLKGVHPDLVAVVHRAIQLTPVDFAVIEGLRSVSRQKELVAAGASKTMNSRHLTGHAVDLAAYVNGIRWDWPLYDAIAVAVKAAAKELGVAIVWGGDWTTFKDGPHFELDRSKYRKKTRKRLKKIGKVLKWIPPGGGSGGGGSGGGSTRKRLKKIGKVLKWI
- CAA MIC (P. aeruginosa): 32000 µg/mL
- CAA/HuS MIC (P. aeruginosa): 500 µg/mL
- effect of the structural modification on activity (as assessed by MIC) versus the parent lysin (P. aeruginosa): very strong activity in the presence of human serum

B6: GN14: lysin obtained from Pseudomonas phage Lull (SEQ ID NO: 124) (protein)
chain: NNELPWVAEARKYIGLREDTSKTSHNPKLLAMLDRMGEFSNESRAWWHDDETPWCGLFVGYCLGVAGRYVVREWYRARAWEAPQLTKLDRPAYGALVTFTRSGGGHVGFIVGKDARGNLMVLGGNQSNAVSIAPFAVSRVTGYFWPSFWRNKTAVKSVPFEERYSLPLLKSNGELSTNEA
- bactericidal activity (CFU decrease of 3-Log10, 3 hours after the addition of lysin) ([3]; 10 μg/mL, enumerated lysins in CAA/HuS, general statement for HEPES and CAA/HuS): bactericidal activity
- HEPES (Log10 CFU/mL), 1 hr [3]: <3.7 Log10 CFU/mL
- HEPES (Log10 CFU/mL), 3 hr [3]: <3.7 Log10 CFU/mL
- CAA/HuS (Log10 CFU/mL), 1 hr [3]: 5.7 Log10 CFU/mL
- CAA/HuS (Log10 CFU/mL), 3 hr [3]: <3.7 Log10 CFU/mL
- activity in CAA supplemented with human serum (25%) [2]: active
- CAA MIC [2]: >128
- CAA/HuS MIC [2]: 32

B7: GN223: lysin-AMP construct: RPP moiety, IGEM linker and amurin peptide Gkh2 C-terminal to GN37 lysin (SEQ ID NO: 12) (protein)
chain: MTYTLSKRSLDNLKGVHPDLVAVVHRAIQLTPVDFAVIEGLRSVSRQKELVAAGASKTMNSRHLTGHAVDLAAYVNGIRWDWPLYDAIAVAVKAAAKELGVAIVWGGDWTTFKDGPHFELDRSKYRPPGGGSGGGGSGGGSSKKASRKSFTKGAVKVHKKNVPTRVPMRGGIRL
- CAA MIC (P. aeruginosa): 32000 µg/mL
- CAA/HuS MIC (P. aeruginosa): 2000 µg/mL
- effect of the structural modification on activity (as assessed by MIC) versus the parent lysin (P. aeruginosa): very strong activity in the presence of human serum

B8: GN239: lysin-AMP construct: IGEM linker and RI18 peptide C-terminal to GN37 lysin (SEQ ID NO: 14) (protein)
chain: MTYTLSKRSLDNLKGVHPDLVAVVHRAIQLTPVDFAVIEGLRSVSRQKELVAAGASKTMNSRHLTGHAVDLAAYVNGIRWDWPLYDAIAVAVKAAAKELGVAIVWGGDWTTFKDGPHFELDRSKYGGGSGGGGSGGGSRKKTRKRLKKIGKVLKWI
- CAA MIC (P. aeruginosa): 4000 µg/mL
- CAA/HuS MIC (P. aeruginosa): 250 µg/mL
- effect of the structural modification on activity (as assessed by MIC) versus the parent lysin (P. aeruginosa): very strong activity in the presence of human serum
